# Values of other authors as cited in US20070281020A1, “PHARMACEUTICAL COMPOSITIONS FOR SUSTAINED RELEASE OF PHENYLEPHRINE” (priority 2006, published 2007).
# Conditions: active metabolite of loratadine
structure (smiles),measurement,value
Clc1ccc2c(c1)CCc1cccnc1C2=C1CCNCC1 [desloratadine],half-life (t1/2),15 to 19 h
